Test results published in paper PMC7327383, “The affinity and selectivity of α‐adrenoceptor antagonists, antidepressants, and antipsychotics for the human α1A, α1B, and α1D‐adrenoceptors” (Pharmacology Research & Perspectives, 2020).
Read-outs that look alike come from different tables or passages of the source.

Experiments:
human α1B-adrenoceptor = biological target: T1, human α1B-adrenoceptor (Homo sapiens, UniProt P35368); test: [3H]prazosin whole-cell competition binding, CHO-α1B cells; settings: for Selectivity ratio α1B vs α1D: ratio of KD values, higher α1B affinity, 1.0 under vs = none; for selectivity α1B vs α1D: ratio, 1 = no selectivity for a subtype over another
T1 construct: CHO cells stably expressing either the full‐length human α1A, α1B, or α1D‐adrenoceptor
T1 sequence (P35368 1-520): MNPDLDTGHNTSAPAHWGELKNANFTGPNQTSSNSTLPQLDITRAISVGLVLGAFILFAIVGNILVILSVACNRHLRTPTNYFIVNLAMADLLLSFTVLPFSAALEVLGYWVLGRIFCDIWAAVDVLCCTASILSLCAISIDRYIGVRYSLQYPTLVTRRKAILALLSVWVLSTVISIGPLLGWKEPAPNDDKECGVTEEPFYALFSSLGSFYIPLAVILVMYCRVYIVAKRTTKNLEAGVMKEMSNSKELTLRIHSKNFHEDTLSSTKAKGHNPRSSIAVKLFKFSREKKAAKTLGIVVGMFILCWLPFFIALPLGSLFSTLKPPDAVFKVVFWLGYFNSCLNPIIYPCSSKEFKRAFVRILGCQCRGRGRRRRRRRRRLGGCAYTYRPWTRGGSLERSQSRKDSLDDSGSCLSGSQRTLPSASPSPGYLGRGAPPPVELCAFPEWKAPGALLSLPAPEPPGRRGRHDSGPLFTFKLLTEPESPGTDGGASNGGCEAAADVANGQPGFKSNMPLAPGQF

[1] = biological target: T2, full-length human α1D-adrenoceptor (Homo sapiens, UniProt P25100); test: [3H]prazosin whole-cell competition binding, CHO-α1D cells; settings: for Selectivity ratio α1A vs α1D / Selectivity ratio α1B vs α1D: ratio of KD values, higher α1D affinity (site 1 KD)
T2 sequence (P25100 1-572): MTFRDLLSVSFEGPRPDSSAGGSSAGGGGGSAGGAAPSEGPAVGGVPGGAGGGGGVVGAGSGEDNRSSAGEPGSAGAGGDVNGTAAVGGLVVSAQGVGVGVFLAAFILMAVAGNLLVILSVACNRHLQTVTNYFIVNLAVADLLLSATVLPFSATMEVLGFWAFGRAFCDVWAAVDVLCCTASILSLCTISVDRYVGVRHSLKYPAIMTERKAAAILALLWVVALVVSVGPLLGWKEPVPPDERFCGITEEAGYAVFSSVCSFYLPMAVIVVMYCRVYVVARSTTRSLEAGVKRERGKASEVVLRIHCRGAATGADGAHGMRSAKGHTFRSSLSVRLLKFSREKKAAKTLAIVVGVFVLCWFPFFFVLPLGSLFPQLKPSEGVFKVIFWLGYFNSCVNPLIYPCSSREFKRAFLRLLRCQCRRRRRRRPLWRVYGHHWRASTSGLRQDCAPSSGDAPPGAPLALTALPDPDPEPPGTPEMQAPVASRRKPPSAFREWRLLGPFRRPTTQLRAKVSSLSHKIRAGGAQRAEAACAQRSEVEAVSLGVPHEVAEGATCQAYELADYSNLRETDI

human α1A-adrenoceptor = biological target: T3, human α1A-adrenoceptor (Homo sapiens, UniProt P35348); test: [3H]prazosin whole-cell competition binding, CHO-α1A cells; settings: for Selectivity ratio α1A vs α1B / Selectivity ratio α1A vs α1D: ratio of KD values, 1.0 under vs = none; for Selectivity ratio α1A vs α1B: printed under α1A = higher α1A affinity; for Selectivity ratio α1A vs α1D: higher α1A affinity; for selectivity α1A vs 1D / selectivity α1A vs α1B: ratio, 1 = no selectivity for a subtype over another
T3 construct: CHO cells stably expressing either the full‐length human α1A, α1B, or α1D‐adrenoceptor
T3 sequence (P35348 1-466): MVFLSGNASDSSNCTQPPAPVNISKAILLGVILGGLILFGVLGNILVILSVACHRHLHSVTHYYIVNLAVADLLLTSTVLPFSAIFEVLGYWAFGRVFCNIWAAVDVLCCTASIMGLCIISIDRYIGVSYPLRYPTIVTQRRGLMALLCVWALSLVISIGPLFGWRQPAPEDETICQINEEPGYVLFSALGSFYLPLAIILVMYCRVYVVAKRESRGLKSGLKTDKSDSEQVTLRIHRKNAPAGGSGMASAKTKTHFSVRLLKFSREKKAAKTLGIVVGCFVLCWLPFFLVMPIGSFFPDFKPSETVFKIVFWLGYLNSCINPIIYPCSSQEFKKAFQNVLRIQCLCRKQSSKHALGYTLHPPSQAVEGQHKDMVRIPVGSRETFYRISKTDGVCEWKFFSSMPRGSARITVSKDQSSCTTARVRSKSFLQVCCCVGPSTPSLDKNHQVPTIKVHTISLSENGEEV

[2] = single-component inhibition curve, given as log KD (negative), mean ± SE mean, read-out: Log KD α1B (converted)
[3] = Log KD α1D, single-component inhibition curve, given as log KD (negative), mean ± SE mean
[4] = single-component inhibition curve, given as log KD (negative), mean ± SE mean, read-out: Log KD α1A (converted)
[5] = single-component inhibition curve, given as log KD (negative), mean ± SE mean
[6] = selectivity ratio, 1 = no selectivity for a given receptor subtype over another

Row | SMILES | Selectivity ratio α1A vs α1B (human α1A-adrenoceptor) [fold] | Selectivity ratio α1B vs α1D (human α1B-adrenoceptor) [fold] | Kd (human α1B-adrenoceptor; [2]) [µM] | Kd [1, 3] [µM] | Selectivity ratio α1A vs α1D (human α1A-adrenoceptor) [fold] | Kd (human α1A-adrenoceptor; [4]) [µM] | selectivity α1B vs α1D (human α1B-adrenoceptor) | Selectivity ratio α1B vs α1D [1] [fold] | also measured
1 | COc1ccc2cccc(CCNC(C)=O)c2c1 [Agomelatine] | >3.7 | – | – | – | – | – | – | – | Log KD α1B: result in words (human α1B-adrenoceptor; no inhibition of [3H]prazosin binding at maximum concentration possible): No binding to 100 µmol/L; binding at α1B (human α1B-adrenoceptor; result in words in the Log KD α1B column): No binding to 100µM; binding at α1B (result in words) (human α1B-adrenoceptor; up to the maximum concentration): No binding to 100µM; IC50 [1]: > 31.6 µM; Kd (human α1A-adrenoceptor; app: top concentration inhibited most but not all specific binding, curve extrapolated, read-out: Log KD α1A (apparent) (converted)): 26.9 µM
2 | O=C1Cc2cc(CCN3CCN(c4nsc5ccccc45)CC3)c(Cl)cc2N1 [Ziprasidone] | 11 | 3.2 | 0.02 | 0.0631 | 34 | 0.00186 | – | – | –
3 | CC(C)(C)NCC(O)COc1cccc2[nH]c(=O)[nH]c12 (centres unmarked) [CGP 12177] | – | – | – | – | – | – | >1.6 | – | Log IC50 α1B (human α1B-adrenoceptor; log IC50 bound): Log IC50>-4; Kd ([1]; Log KD α1D, log KD from 3H-prazosin whole cell binding, CHO cells, mean ± s.e.mean): 63.1 µM; Kd (human α1A-adrenoceptor; log KD from 3H-prazosin whole cell binding, CHO cells, mean ± s.e.mean, read-out: Log KD α1A (converted)): 7.24 µM; selectivity α1A vs 1D (human α1A-adrenoceptor): 8.7; selectivity α1A vs α1B (human α1A-adrenoceptor): >14
4 | CNCCCN1c2ccccc2CCc2ccc(Cl)cc21 [Norclomipramine] | 48 | 1.0 | – | – | 48 | – | – | – | Log KD α1B (human α1B-adrenoceptor; [5]): −5.84 ± 0.04; Log KD α1D [1, 5]: −5.84 ± 0.06; selectivity α1A vs 1D (human α1A-adrenoceptor): 48; selectivity α1A vs α1B (human α1A-adrenoceptor): 48; selectivities α1A vs α1B (human α1A-adrenoceptor; [6]): 48; selectivities α1A vs α1D (human α1A-adrenoceptor; [6]): 48; Log KD α1A (human α1A-adrenoceptor; [5]): −7.52 ± 0.08
5 | O=C1NCN(c2ccccc2)C12CCN(CC1COc3ccccc3O1)CC2 (centres unmarked) [Spiroxatrine] | 2.8 | – | 0.389 | – | – | 0.138 | 28 | 28 | Kd ([1]; Log KD α1D site 1, high-affinity component of two-component curve, control, used for selectivity): 0.0138 µM; Log KD α1D site 2 ([1]; low-affinity component of two-component curve, control): −5.84 ± 0.31; % site 1 α1D ([1]; percentage of inhibition through first component, control): 61.9 ± 4.0% site 1; Selectivity ratio α1A vs α1D [1]: 10 fold; % site 1 α1D ([1]; two-component inhibition curve, proportion of site 1): -7.86 ± 0.13 -5.84 ± 0.31 61.9 ± 4.0% site 1; selectivity α1A vs 1D (human α1A-adrenoceptor): 10
6 | CC(C)(C)NCC(O)COc1cccc2[nH]c(C#N)cc12 (centres unmarked) [Cyanopindolol] | 4.8 | – | 12.3 | – | 1.5 | 2.57 | 3.1 | 3.1 | Kd [1]: 3.98 µM
7 | CC1c2ccccc2CN1CC1=NCCN1 (centres unmarked) [BRL44408] | 17 | – | – | – | 7.2 | – | 2.4 | 2.4 | Log KD α1B (human α1B-adrenoceptor; [5]): −4.68 ± 0.07; Log KD α1D [1, 5]: −5.06 ± 0.05; Log KD α1A (human α1A-adrenoceptor; [5]): −5.92 ± 0.09
8 | O=C(NC1CCN(CCc2c[nH]c3ccccc23)CC1)c1ccccc1 [Indoramin] | 41 | 3.4 | 0.151 | 0.513 | 138 | 0.00372 | – | – | α1A selectivity (human α1A-adrenoceptor; for α1A over the α1B or α1D-adrenoceptors): 40 fold
9 | Cc1ccc(OCC(O)C(C)NC(C)C)c2c1CCC2 (centres unmarked) [ICI118551] | 11 | – | – | 11 | 1.9 | 5.89 | 5.8 | 5.8 | Kd (human α1B-adrenoceptor; app: top concentration inhibited most but not all specific binding, curve extrapolated, read-out: Log KD α1B (apparent) (converted)): 63.1 µM
10 | Cc1ccc(Sc2ccccc2N2CCNCC2)c(C)c1 [Vortioxetine] | 7.9 | 1.0 | 3.8 | 3.72 | 7.8 | 0.479 | – | – | –
11 | CC(C)(Cc1c[nH]c2ccc(Cl)cc12)NCCOc1ccccc1OCC1CC1.Cl [RS17053, N‐[2‐(2‐cyclopropylmethoxyphenoxy)ethyl]‐5‐chloro‐alpha, alpha‐dimethyl‐1H‐indole‐3‐ethanamine hydrochloride] | 52 | – | 0.245 | – | 31 | 0.00468 | 1.7 | 1.7 | Kd [1]: 0.145 µM
12 | Cn1cc(C(F)(F)F)nc1-c1ccc(OCC(O)CNCCOc2ccc(O)c(C(N)=O)c2)cc1 (centres unmarked) [CGP20712A] | >8.5 | – | – | – | – | 11.7 | – | >9.1 | IC50 (human α1B-adrenoceptor; read-out: Log IC50 α1B (converted)): > 100 µM; Kd ([1]; Log KD α1D (apparent), app: top concentration inhibited most but not all specific binding, curve extrapolated): 11 µM; Selectivity ratio α1A vs α1D [1]: 1.1 fold
